Measurements reported in patent publication US12691178B2, “Polysorbate mixtures having modified fatty acid ester distribution” (Genentech, Inc., priority 2020, dated 2026).
Converted amounts (≈) assume the structure as drawn.

Experiment: FFA solubility at different formulation pH at constant PS20 concentration, fit to modified Henderson-Hasselbalch equation
Assay type: physicochemical
Conditions: constant of the 'pH term' of the FFA solubility model (Equation 1); for solubility: formulation containing PS20, aqueous with cosolvent or surfactant or cyclodextrin, read-out: Solubility of the non-ionized FFA (β1); for pKa: formulation containing polysorbate 20 (PS20), read-out: Experimentally determined pKa (β2)
Experimental: To create the model, first, FFA solubility was measured at different formulation pH's at a constant PS20 concentration. […] Second, FFA solubility was measured at different PS20 concentrations at a constant pH.

CCCCCCCCCCCC(=O)O [Lauric (C12) Acid, lauric acid]
solubility: 9.97 µg/mL (≈ 49.8 µM)
pKa: 5.71

CCCCCCCCCCCCCC(=O)O [Myristic (C14) Acid, myristic acid]
solubility: 3.87 µg/mL (≈ 16.9 µM)
pKa: 6.67
